{"source": "patent US20060236430A1", "about": "“Methods and compositions for producing male sterile plants” (priority 2003, published 2006)", "key": {"[1]": {"tested_on": "transgenic Nicotiana tabacum plants (line 7) expressing AtST2a", "experiment": "Normalization experiment: restoring normal anther development in male sterile transgenic tobacco expressing AtST2a", "type": "in vivo", "conditions": "for restoration of the male sterile phenotype by exogenous application: transgenic tobacco overexpressing AtST2a, concentration not given", "experimental": "The apex of T2 plants of line 7 was soaked daily in a solution containing either: 0.05% Tween20 in water (control), 0.05% Tween20 in water containing 50 μM MeJA or 0.05% Tween20 in water containing 100 μM 12-OHJA. The treatments were started approximately 7 days before the appearance of the first flower buds and lasted a total of 14 days. A minimum of 5 plants for each treatment were analyzed in this study.\nIn order to restore the phenotype, the apex of transgenic plants were soaked daily for 2 minutes in a solution containing 100 μM 12-OHJA dissolved in aqueous 0.05% TWEEN20. The application was started approximately 7 days prior to the appearance of the first flower bud and was continued for 7 days after the first flower appeared."}, "[2]": {"tested_on": "A. thaliana opr3 mutant deficient in JA biosynthesis", "experiment": "Restoring the male sterile phenotype of the opr3 mutant by exogenous application to the inflorescence", "type": "in vivo, Arabidopsis thaliana", "conditions": "data not shown"}, "[3]": {"biological_target": "T1, hydroxyjasmonic acid sulfotransferase encoded by the AtST2a gene (Arabidopsis thaliana, UniProt Q8L5A7)", "T1 sequence (Q8L5A7 1-359)": "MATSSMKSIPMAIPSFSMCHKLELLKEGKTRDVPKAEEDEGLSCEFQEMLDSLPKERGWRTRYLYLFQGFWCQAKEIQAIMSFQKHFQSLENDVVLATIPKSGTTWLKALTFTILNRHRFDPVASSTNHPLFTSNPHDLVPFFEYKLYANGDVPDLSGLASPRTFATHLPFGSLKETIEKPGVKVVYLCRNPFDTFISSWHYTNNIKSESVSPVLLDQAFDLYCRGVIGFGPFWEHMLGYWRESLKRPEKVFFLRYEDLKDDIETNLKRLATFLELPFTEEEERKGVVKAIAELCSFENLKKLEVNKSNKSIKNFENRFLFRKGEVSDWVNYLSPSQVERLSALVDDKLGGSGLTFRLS", "experiment": "Substrate specificity and kinetics of the AtST2a hydroxyjasmonic acid sulfotransferase", "type": "biochemical", "conditions": "structurally related compounds", "from_the_text": "(§1) SEQ ID NO 1 (FIG. 6; GenBank®: accession number NM_120783) corresponds to the gene AtST2a in Arabidopsis thaliana. SEQ ID NO 3 (FIG. 7) is an amino acid sequence deduced from SEQ ID NO 1. This amino acid sequence is of public domain and can be retrieved from GenBank®, accession number NM_120783. The AtST2a gene from Arabidopsis thaliana encodes a sulfotransferase that sulfonates 12-OHJA and 11-OHJA with high specificity."}, "[4]": {"substrate": "CC(O)C=CCC1C(=O)CCC1CC(=O)O", "experiment": "Substrate specificity and kinetics of the AtST2a hydroxyjasmonic acid sulfotransferase", "type": "biochemical, Arabidopsis thaliana", "conditions": "other: as substrate of the sulfotransferase; pH 7.5", "from_the_text": "as §1"}, "[5]": {"substrate": "O=C(O)CC1CCC(=O)C1CC=CCCO", "experiment": "Substrate specificity and kinetics of the AtST2a hydroxyjasmonic acid sulfotransferase", "type": "biochemical, Arabidopsis thaliana", "conditions": "other: as substrate of the sulfotransferase; pH 7.5", "from_the_text": "as §1"}}, "note": "Entries after “also recorded” stand apart in the source; their conditions may differ.", "data": [{"molecule": "O=C(O)CC1CCC(=O)C1CC=CCCO", "note": "(stereo not drawn) [12-OHJA, 3-Oxo-2-(5-hydroxy-2-pentenyl)-cyclopentane-1-acetic acid]", "values": [{"measurement": "restoration of normal anther development", "setting": "[1]; 100 μM in aqueous 0.05% TWEEN20, apex of line 7 soaked daily for 2 minutes, 14 days", "value": "restoration of the mutant phenotype; also recorded: restored normal anther development"}, {"measurement": "production of viable pollen", "setting": "[1]; apex of transgenic plants treated for 14 days (FIG. 5)", "value": "production of viable pollen"}, {"measurement": "restoration of the male sterile phenotype by exogenous application", "setting": "[1]", "value": "could be restored"}, {"measurement": "restoration of the male sterile phenotype", "setting": "[2]", "value": "restore the male sterile phenotype"}]}, {"molecule": "CC/C=C\\C[C@H]1C(=O)CC[C@@H]1CC(=O)O", "note": "[JA, jasmonic acid]", "values": [{"measurement": "restoration of the male sterile phenotype by exogenous application", "setting": "[1]", "value": "could be restored"}]}, {"molecule": "CCCCC/C=C\\C/C=C\\C/C=C\\C/C=C\\CCCCO", "note": "[arachidonyl alcohol]", "values": [{"measurement": "acceptance as substrate by the enzyme", "setting": "[3]", "value": "did not accept"}]}, {"molecule": "CC/C=C/CC1C(O)CCC1CC(=O)O", "note": "(stereo not drawn) [cucurbic acid]", "values": [{"measurement": "acceptance as substrate by the enzyme", "setting": "[3]", "value": "did not accept"}]}, {"molecule": "hydroxyjasmonic acid sulfotransferase encoded by the AtST2a gene (Arabidopsis thaliana) (protein) MATSSMKSIPMAIPSFSMCHKLELLKEGKTRDVPKAEEDEGLSCEFQEMLDSLPKERGWRTRYLYLFQGFWCQAKEIQAIMSFQKHFQSLENDVVLATIPKSGTTWLKALTFTILNRHRFDPVASSTNHPLFTSNPHDLVPFFEYKLYANGDVPDLSGLASPRTFATHLPFGSLKETIEKPGVKVVYLCRNPFDTFISSWHYTNNIKSESVSPVLLDQAFDLYCRGVIGFGPFWEHMLGYWRESLKRPEKVFFLRYEDLKDDIETNLKRLATFLELPFTEEEERKGVVKAIAELCSFENLKKLEVNKSNKSIKNFENRFLFRKGEVSDWVNYLSPSQVERLSALVDDKLGGSGLTFRLS", "values": [{"measurement": "Km", "setting": "[4]", "value": 60, "unit": "µM"}, {"measurement": "Km", "setting": "[5]", "value": 11, "unit": "µM"}]}]}
